# Source: paper PMC7249060, “The Antiproliferative Effects of Flavonoid MAO Inhibitors on Prostate Cancer Cells” (Molecules, 2020)
# Columns and labels:
# hMAO-A = biological target: T1, hMAO-A (Homo sapiens, UniProt P21397); assay: MAO-Glow luminescence screen of KKRs at 100 μM; type: biochemical; conditions: 100 μM screen
# T1 construct: purchased Sigma-Aldrich Co. (St. Louis, MO, USA)
# T1 sequence (P21397 1-527): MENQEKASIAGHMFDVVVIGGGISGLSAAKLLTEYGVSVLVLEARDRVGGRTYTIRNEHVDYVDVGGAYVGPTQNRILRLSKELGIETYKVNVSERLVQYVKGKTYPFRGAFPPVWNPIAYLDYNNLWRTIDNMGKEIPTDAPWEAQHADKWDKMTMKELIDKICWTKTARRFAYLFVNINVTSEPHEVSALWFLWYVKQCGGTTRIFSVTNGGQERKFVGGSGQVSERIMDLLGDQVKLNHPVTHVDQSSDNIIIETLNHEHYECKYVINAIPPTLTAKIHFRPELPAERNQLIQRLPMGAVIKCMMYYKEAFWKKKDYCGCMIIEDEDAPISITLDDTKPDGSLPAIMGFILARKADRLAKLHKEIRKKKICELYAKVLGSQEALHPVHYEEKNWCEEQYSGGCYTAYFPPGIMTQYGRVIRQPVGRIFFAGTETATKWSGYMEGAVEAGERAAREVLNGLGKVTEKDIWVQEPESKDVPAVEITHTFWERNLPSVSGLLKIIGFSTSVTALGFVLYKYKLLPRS
# Experimental: (§1) We optimized our control hMAO-A and hMAO-B isozymes reactions in the incubation condition, at 37 °C for 1 h, by performing a luminescence assay using the MAO-Glow™ kit. Upon arrival, each isozyme was diluted with 10 mM HEPES in cold HBSS of pH 7.4. Afterward, the diluted isozymes were kept at −80 °C until use. Enzyme concentration optimization was accomplished by testing ten 2X serially diluted hMAO-A and hMAO-B concentrations for a final range of 7.00–0.01 U/mL each. The tested isozymes were incubated with LDS of 40 and 4 μM for isozymes A and B, respectively (recommended by Promega protocol), and a maximum of used DMSO of 1% final concentration. Different isozyme concentrations reactions at their initial velocities were monitored. Consequently, their required concentrations were defined to be 0.44 U/mL each. Additionally, ten different LDS concentrations, ranging from 0.3–150 μM, were monitored for optimizing and validating the linearity of the initial reaction for the hMAO-A mode of action. Subsequently, we chose a saturated substrate of 75 μM as a required concentration for the hMAO-A enzyme kinetic reactions.
# (§2) The inhibitory effects of the synthesized KKRs of hMAO-A and B were tested by measuring the decrease in arbitrary light units (ALU) signal produced by the optimized isozymes using the MAO-Glow™ Assay at 37 °C. In this assay, DMSO stock for each KKR compound was diluted with a reaction buffer of pH 7.4 to make a 4X working solution for a maximum final concentration of 100 μM and ≤1% DMSO. The experiments were run in the absence and presence of 4X the miscellaneous standards of MAO-BIs (DEP, PARG, and SAF) and MAO-AIs (PIRL and CLORG), with similar concentrations. In white opaque 96-well microplates, 12.5 μL of each compound was plated at RT and was followed by 25 μL of 2X cold hMAO-A or hMAO-B, for a final concentration of 0.44 U/mL. A related buffer substituted each isozyme to make the blank wells and substituted each compound to make the negative control wells. Following this, we added 12.5 μL of 4X LDS to make a final substrate concentration of 40- and 4-μM for hMAO-A and hMAO-B, respectively. All screen plates were incubated at 37 °C for 60 min. The plates of 50 μL/well were then taken out from the incubator, and their reactions were stopped by an equal volume of 50 μL of reporter luciferin detection reagent (RLDR). After 30 min, the luminescence signals for all plates were read on a Synergy HTX Multi-reader from Bio-Tek (Winooski, VT, USA).
# hMAO-B = biological target: T2, hMAO-B (Homo sapiens, UniProt P27338); assay: MAO-Glow luminescence screen of KKRs at 100 μM; type: biochemical; conditions: 100 μM screen
# T2 construct: purchased Sigma-Aldrich Co. (St. Louis, MO, USA)
# T2 sequence (P27338 1-520): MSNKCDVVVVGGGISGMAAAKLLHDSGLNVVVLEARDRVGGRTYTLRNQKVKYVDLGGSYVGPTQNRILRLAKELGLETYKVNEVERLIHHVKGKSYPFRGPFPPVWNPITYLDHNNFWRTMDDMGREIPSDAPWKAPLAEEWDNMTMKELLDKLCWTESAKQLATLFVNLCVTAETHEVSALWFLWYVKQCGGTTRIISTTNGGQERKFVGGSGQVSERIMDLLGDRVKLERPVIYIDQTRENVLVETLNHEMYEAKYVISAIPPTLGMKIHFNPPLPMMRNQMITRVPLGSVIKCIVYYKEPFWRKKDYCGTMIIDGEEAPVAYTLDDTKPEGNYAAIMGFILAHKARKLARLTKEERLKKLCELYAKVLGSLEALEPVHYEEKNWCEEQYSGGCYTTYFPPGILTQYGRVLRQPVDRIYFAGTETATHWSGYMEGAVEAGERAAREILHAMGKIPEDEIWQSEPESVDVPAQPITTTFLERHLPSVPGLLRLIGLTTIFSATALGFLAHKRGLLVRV
# Experimental: as §1, §2
# LNCaP cells [1] = assay: Viability screen assay, resazurin, 24 h; type: cell-based, human; conditions: 50 μM, 90% viability as margin of cytotoxicity
# Experimental: We examined the cytotoxic effects of all 20 synthesized KKRs on the three human PCa cell lines LNCaP, DU145, and PC3, after a 24 h exposure period. Non-toxic TAX was used for comparison. Briefly, cultured cells were seeded in black transparent bottom 96-well microplates at 50,000 cells/175-µL/well in experimental media (RPMI1640 for LNCaP, EMEM for DU145, and DMEM/F12K for PC3), supplied with 5% FBS and 1% P/S. Wells of media without cells were considered blanks and negative controls. The plates were incubated overnight at 37 °C in 5% CO2 to allow cell attachment. For each compound, a working solution of 8X KKR in sterile […] HEPES in HBSS pH buffer of 7.4 was prepared for a final concentration of 50 μM each. The three attached cell types were treated immediately with the related buffer being added to the control wells. A sterile fluorescence-based solution of the resazurin reagent of 0.5 mg/mL in HBSS was prepared. After 24 h, the cells were exposed to 15% v/v of the sterile resazurin reagent, and the plates were re-incubated for 4.5 h to allow redox reaction. All plates were read under 530/590-nm excitation/emission wavelengths using Bio-Tek Synergy HTX Multi-reader as a microplate fluorescence reader.
# DU145 cells [2] = assay: Antiproliferation screen assay, resazurin, 72 h; type: cell-based, human; conditions: 50 μM
# Experimental: (§3) In this screen, we examined the growth inhibitory effects of all synthesized KKRs on the three human PCa cell lines LNCaP, DU145, and PC3. The antiproliferative clinical drug TAX of 0.25 μM was used as a positive control. Additionally, different standards of MAO-Is and FLUT were tested for their effect on the LNCaP cells. Briefly, the procedures and materials used were the same as for the viability assay except for the following—cultured cells were seeded at 10,000 cells/175-µL/well related experimental media, and the resazurin solution was added after 72 h of incubation with the compounds of 50 μM each.
# LNCaP cells [3] = assay: Antiproliferation screen assay, resazurin, 72 h; type: cell-based, human; conditions: 50 μM
# Experimental: as §3
# PC3 cells [4] = assay: Antiproliferation screen assay, resazurin, 72 h; type: cell-based, human; conditions: 50 μM
# Experimental: as §3
# DU145 cells [5] = assay: Antiproliferation dose-response assay for 72 h; type: cell-based; conditions: Homo sapiens, DU-145; DU145, 72 h, mean ± SEM of two experiments; read-out: antiproliferative IC50
# Experimental: (§4) For the top effective KKRs, along with TAX, their potency to reduce the affected PCa cell line growth in a dose-dependent manner was determined using the resazurin fluorescence assay. We followed the same protocols and materials used for the antiproliferation screen assays (Section 4.3.2), with the following modifications. The maximum final KKR concentration used was 40 μM. The concentration of 8X of each KKR working solution in 1% HEPES 7.4 was serially diluted in a 3:1 ratio, compound to buffer, respectively. Each data set was collected from ten data points of 3.7–40 μM range. The control had the KKR substituted with buffer. The related IC50 averages were analyzed for the compounds that affected the cell lines the most.
# LNCaP cells [6] = assay: Antiproliferation dose-response assay for 72 h; type: cell-based; conditions: Homo sapiens, mean ± SEM of two experiments, read-out: antiproliferative IC50
# Experimental: as §4
# PC3 cells [7] = assay: Antiproliferation dose-response assay for 72 h; type: cell-based; conditions: Homo sapiens, PC-3; PC3, 72 h, mean ± SEM of two experiments; read-out: antiproliferative IC50
# Experimental: as §4
compound,measurement,setting,value
"COc1cc(O)c(C(=O)/C=C/c2cc(OC)c(OC)c(OC)c2)c(OC)c1 [KKR17, (E)-1-(2-hydroxy-4,6-dimethoxyphenyl)-3-(3,4,5-trimethoxyphenyl)prop-2-en-1-one]",MAO inhibitory property in MAO screen,hMAO-A,did not have MAO inhibitory properties
same,MAO inhibitory property in MAO screen,hMAO-B,did not have MAO inhibitory properties
same,cytotoxicity / cell viability,LNCaP cells [1],affected the LNCaP cells
same,antiproliferative effect in screen,DU145 cells [2],top effective
same,antiproliferative effect in screen,LNCaP cells [3],top five KKRs that kept standing out with antiproliferative effects
same,antiproliferative effect in screen,PC3 cells [4],"effective against all investigated cell lines, including the metastatic PC3"
same,IC50,DU145 cells [5],9 ± 0.5 µM
same,IC50,LNCaP cells [6],21 ± 1 µM
same,IC50,PC3 cells [7],34 ± 1 µM
